{
  "source": "patent US8609719B2",
  "about": "“Propargylated aminoindans, processes for preparation, and uses thereof” (priority 2006, dated 2013)",
  "key": {"MAO-A [1]": {"biological_target": "T1, MAO-A (Rattus norvegicus, UniProt P21396)", "T1 construct": "from tissue; host or cells: brain, liver and intestine (duodenum) of dosed rats", "T1 sequence (P21396 1-526)": "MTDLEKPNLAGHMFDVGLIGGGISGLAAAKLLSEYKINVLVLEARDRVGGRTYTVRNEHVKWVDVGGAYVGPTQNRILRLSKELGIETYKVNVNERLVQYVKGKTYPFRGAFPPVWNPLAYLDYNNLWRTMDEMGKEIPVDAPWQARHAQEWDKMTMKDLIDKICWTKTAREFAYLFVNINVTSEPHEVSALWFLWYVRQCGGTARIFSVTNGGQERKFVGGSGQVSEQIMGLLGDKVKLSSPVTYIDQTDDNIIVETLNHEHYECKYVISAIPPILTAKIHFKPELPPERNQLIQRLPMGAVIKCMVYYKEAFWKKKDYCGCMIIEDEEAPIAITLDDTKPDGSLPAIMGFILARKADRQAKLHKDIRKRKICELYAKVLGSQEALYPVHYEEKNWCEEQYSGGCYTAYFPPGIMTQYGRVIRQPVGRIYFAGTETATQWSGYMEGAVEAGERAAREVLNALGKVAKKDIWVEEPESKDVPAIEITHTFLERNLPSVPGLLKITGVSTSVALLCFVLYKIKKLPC", "assay": "Inhibition of MAO activity in vitro (5-HT substrate)", "type": "biochemical", "settings": "rat brain homogenate; 5-HT 100 uM; 60 minutes pre-incubation at 37° C.; read-out: IC50 for MAO-A inhibition", "description": "The MAO enzyme source was a homogenate of rat brain in 0.3M sucrose. The homogenate was diluted appropriately, and pre-incubated with serial dilutions of test compounds—diluted in phosphate buffer containing clogyline when 2-phenylethylamine (PEA) is the substrate, and diluted in phosphate buffer containing selegiline when 5-hydroxytryptamine (5-HT) is the substrate—for 60 minutes at 37° C. 14C-Labeled substrates (PEA for MAO-B determination and 5-HT for MAO-A determination) were then added, and the incubation continued for a further 20 minutes (PEA) or 30 minutes (5-HT). Substrate concentrations used were 10 μM (PEA) and 100 uM (5-HT). Enzyme concentration was chosen so that not more than 10% of the substrate was metabolized during the course of the reaction. Deaminated products were extracted into toluene-ethyl acetate (1:1 v/v) containing 0.4% (w/v) 2,5-diphenyloxazole (ppo) prior to determination by liquid scintillation counting. Radioactivity in the eluate indicated the production of neutral and acidic metabolites formed as a result of MAO activity. Activity of MAO in the sample was expressed as a percentage of control activity in the absence of inhibitor after subtraction of appropriate blank values. The activity determined using PEA as substrate is referred to as MAO-B, and that determined using 5-HT as MAO-A.\nConcentrations of each inhibitor producing 50% inhibition of substrate metabolism (IC50) were calculated from the inhibition curves, and are shown in Table 1."}, "MAO-A [2]": {"biological_target": "T1, MAO-A", "assay": "MAO-A inhibition in rat organs after chronic P.O. administration", "type": "in vivo", "settings": "po, 7 days, 2 hours after last dose; for inhibition at 37.5 µmol/kg: 37.5 μmol/kg P.O. daily; for inhibition at 75 µmol/kg: 75 μmol/kg P.O. daily; for inhibition at 150 µmol/kg: 150 μmol/kg P.O. daily", "description": "30 rats were separated randomly into 5 testing groups of 6 rats each. Group 1 was the control group to which no drug was administered. Ethyl-hydroxymethyl-carbamic acid 3-R-(prop-2-ynylamino)-indan-5-yl ester fumarate (2:1) was administered to groups 2, 3, 4 in dosages of 150, 75, and 37.5 μmol/kg respectively, daily, perorally (“P.O.”) for seven consecutive days. Water was used as a vehicle.\nRats were sacrificed, out of sight of the other rats, 2 hours after the last administration. Brains were removed into Petri dishes on ice, the cerebellums were […], and the brains cut into halves for analysis. Livers and intestines were removed for MAO determination. Organs were homogenated for enzyme inhibition analysis.\nThe MAO inhibition after administration of ethyl-hydroxymethyl-carbamic acid 3-R-(prop-2-ynylamino)-indan-5-yl ester fumarate (2:1) in various organs is listed in Table 4 calculated in percent relative to the control group."}, "[3]": {"assay": "Pharmacokinetic analysis of ladostigil and metabolites in Alzheimer's disease patients", "settings": "human, in vivo, 100 mg; for Cmax / AUC / AUC(0-t): after ladostigil tartrate 100 mg twice daily; for concentration at 12 h: mean concentration at pre-dose, 12 hours after the previous dose of ladostigil tartrate; for AUC: AUC (M)"}, "[4]": {"settings": "read-out: Brain MAO-A inhibition relative to control"}, "[5]": {"settings": "read-out: Duodenum MAO-A inhibition relative to control"}, "[6]": {"settings": "read-out: Liver MAO-A inhibition relative to control"}},
  "note": "Structures can show the parent of a compound that is named as a salt. Where two headings read alike, the source gives them in different places.",
  "data": [
    {"molecule": "C#CCN[C@@H]1CCc2ccc(OC(=O)N(CC)CO)cc21", "note": "[R-HCPAI, Ethyl-hydroxymethyl-carbamic acid 3-R-(prop-2-ynylamino)-indan-5-yl ester fumarate (2:1)]", "values": [
      {"measurement": "IC50", "setting": "MAO-A [1]", "result": 414, "unit": "µM"},
      {"measurement": "inhibition at 37.5 µmol/kg", "setting": "MAO-A [2]; [4]", "result": 8, "unit": "%"},
      {"measurement": "inhibition at 37.5 µmol/kg", "setting": "MAO-A [2]; [5]", "result": -25, "unit": "%"},
      {"measurement": "inhibition at 37.5 µmol/kg", "setting": "MAO-A [2]; [6]", "result": 3, "unit": "%"},
      {"measurement": "inhibition at 75 µmol/kg", "setting": "MAO-A [2]; [4]", "result": 41, "unit": "%"},
      {"measurement": "inhibition at 75 µmol/kg", "setting": "MAO-A [2]; [5]", "result": 18, "unit": "%"},
      {"measurement": "inhibition at 75 µmol/kg", "setting": "MAO-A [2]; [6]", "result": 9, "unit": "%"},
      {"measurement": "inhibition at 150 µmol/kg", "setting": "MAO-A [2]; [4]", "result": 72, "unit": "%"},
      {"measurement": "inhibition at 150 µmol/kg", "setting": "MAO-A [2]; [5]", "result": 21, "unit": "%"},
      {"measurement": "inhibition at 150 µmol/kg", "setting": "MAO-A [2]; [6]", "result": 16, "unit": "%"},
      {"measurement": "half-life", "setting": "[3]; both", "result": 1.03, "unit": "h"},
      {"measurement": "Cmax", "setting": "[3]; both, Cmax (M), mean, mean of patients, maintenance analysis Week 4", "result": "3.63e-06", "unit": "M"},
      {"measurement": "Cmax", "setting": "[3]; both, Cmax (T), mean, mean of patients, termination analysis Week 9", "result": "3.3e-06", "unit": "M"},
      {"measurement": "concentration at 12 h", "setting": "[3]; both, Cmin (M), mean of patients, maintenance analysis Week 4", "result": "2.32e-08", "unit": "M"},
      {"measurement": "concentration at 12 h", "setting": "[3]; both, Cmin (T), mean of patients, termination analysis Week 9", "result": "1.37e-08", "unit": "M"},
      {"measurement": "AUC", "setting": "[3]; Patient 1, maintenance analysis Week 4", "result": 1660, "unit": "ng·h/mL"},
      {"measurement": "AUC", "setting": "[3]; Patient 2, maintenance analysis Week 4", "result": 600, "unit": "ng·h/mL"},
      {"measurement": "AUC", "setting": "[3]; Patient 3, maintenance analysis Week 4", "result": 2290, "unit": "ng·h/mL"},
      {"measurement": "AUC", "setting": "[3]; Patient 4, maintenance analysis Week 4", "result": 2150, "unit": "ng·h/mL"},
      {"measurement": "AUC", "setting": "[3]; Patient 5, maintenance analysis Week 4", "result": 1700, "unit": "ng·h/mL"},
      {"measurement": "AUC", "setting": "[3]; Patient 6, maintenance analysis Week 4", "result": 1890, "unit": "ng·h/mL"},
      {"measurement": "AUC", "setting": "[3]; Patient 7, maintenance analysis Week 4", "result": 519, "unit": "ng·h/mL"},
      {"measurement": "AUC", "setting": "[3]; Patient 8, maintenance analysis Week 4", "result": 1510, "unit": "ng·h/mL"},
      {"measurement": "AUC(0-t)", "setting": "[3]; Patient 1, termination analysis Week 9", "result": 1300, "unit": "ng·h/mL"},
      {"measurement": "AUC(0-t)", "setting": "[3]; Patient 2, termination analysis Week 9", "result": 3100, "unit": "ng·h/mL"},
      {"measurement": "AUC(0-t)", "setting": "[3]; Patient 3, termination analysis Week 9", "result": 2520, "unit": "ng·h/mL"},
      {"measurement": "AUC(0-t)", "setting": "[3]; Patient 4, termination analysis Week 9", "result": 1740, "unit": "ng·h/mL"},
      {"measurement": "AUC(0-t)", "setting": "[3]; Patient 5, termination analysis Week 9", "result": 1650, "unit": "ng·h/mL"},
      {"measurement": "AUC(0-t)", "setting": "[3]; Patient 6, termination analysis Week 9", "result": 2400, "unit": "ng·h/mL"},
      {"measurement": "AUC(0-t)", "setting": "[3]; Patient 7, termination analysis Week 9", "result": 1040, "unit": "ng·h/mL"},
      {"measurement": "AUC(0-t)", "setting": "[3]; Patient 8, termination analysis Week 9", "result": 1340, "unit": "ng·h/mL"},
      {"measurement": "Cmax", "setting": "[3]; Cmax (M), Patient 1, maintenance analysis Week 4", "result": "3.6e-06", "unit": "M"},
      {"measurement": "Cmax", "setting": "[3]; Cmax (M), Patient 2, maintenance analysis Week 4", "result": "1.5e-06", "unit": "M"},
      {"measurement": "Cmax", "setting": "[3]; Cmax (M), Patient 3, maintenance analysis Week 4", "result": "3.7e-06", "unit": "M"},
      {"measurement": "Cmax", "setting": "[3]; Cmax (M), Patient 4, maintenance analysis Week 4", "result": "7e-06", "unit": "M"},
      {"measurement": "Cmax", "setting": "[3]; Cmax (M), Patient 5, maintenance analysis Week 4", "result": "4.7e-06", "unit": "M"},
      {"measurement": "Cmax", "setting": "[3]; Cmax (M), Patient 6, maintenance analysis Week 4", "result": "4e-06", "unit": "M"},
      {"measurement": "Cmax", "setting": "[3]; Cmax (M), Patient 7, maintenance analysis Week 4", "result": "1.2e-06", "unit": "M"},
      {"measurement": "Cmax", "setting": "[3]; Cmax (M), Patient 8, maintenance analysis Week 4", "result": "3.3e-06", "unit": "M"},
      {"measurement": "Cmax", "setting": "[3]; Cmax (T), Patient 1, termination analysis Week 9", "result": "3.2e-06", "unit": "M"},
      {"measurement": "Cmax", "setting": "[3]; Cmax (T), Patient 2, termination analysis Week 9", "result": "3.9e-06", "unit": "M"},
      {"measurement": "Cmax", "setting": "[3]; Cmax (T), Patient 3, termination analysis Week 9", "result": "3.9e-06", "unit": "M"},
      {"measurement": "Cmax", "setting": "[3]; Cmax (T), Patient 4, termination analysis Week 9", "result": "3.9e-06", "unit": "M"},
      {"measurement": "Cmax", "setting": "[3]; Cmax (T), Patient 5, termination analysis Week 9", "result": "3.7e-06", "unit": "M"},
      {"measurement": "Cmax", "setting": "[3]; Cmax (T), Patient 6, termination analysis Week 9", "result": "3.2e-06", "unit": "M"},
      {"measurement": "Cmax", "setting": "[3]; Cmax (T), Patient 7, termination analysis Week 9", "result": "2.1e-06", "unit": "M"},
      {"measurement": "Cmax", "setting": "[3]; Cmax (T), Patient 8, termination analysis Week 9", "result": "2.6e-06", "unit": "M"}
    ]}
  ]
}
